According to patent US20220024905A1, “CRYSTALLINE FORM OF PROPANAMIDE DERIVATIVE AND PREPARATION METHOD THEREFOR” (NHWA PHARMA. CORPORATION, priority 2018, published 2022):
Where two headings read alike, the source gives them in different places.

Columns and labels:
[1] = Mechanical stress of the crystal form (ball milling, PXRD); format: physicochemical; conditions: for Crystal form after ball milling: ball mill 400 r/min, PXRD, duplicate mortars; for change of crystal form under ball milling pressure: ball milled for 30 min, 4 h and 6 h
Procedure: Samples were taken when the ball milled at 30 min, 4 h and 6 h respectively, and then for PXRD test. The change of crystal form was observed, and the experiment was carried out parallelly in duplicate.

[2] = Crystalline stability: stability factors test at high humidity, high temperature and light (PXRD and HPLC content); format: physicochemical; conditions: for Content (%): HPLC content (w/w, %); for Crystal form: PXRD; for content (all conditions) / morphology of crystal form: high humidity, high temperature and light, each for 10 days
Source text: The samples were taken at day 5 and day 10 respectively for PXRD (polycrystalline X ray diffraction) detection and HPLC content (w/w, %) determination, and the results were compared with that of day 0.

[3] = Pharmacokinetics of Crystal Form A and Crystal Form B capsules in beagle dogs; format: in vivo
Procedure: There were 12 beagle dogs for the experiment, half male and half female, weighing 11.0-14.1 kg, provided by the Teaching and Experimental Ground of Agricultural College of Shanghai Jiao Tong University. The animals were raised in single cage, and the feeding amount can be adjusted according to the weight or feed intake of the animals. The animals can drink water freely, with 12/12 h light/dark cycle adjustment, constant temperature of 23±1° C., humidity of 50-60%. On the day of administration, the experimental animals were fasted overnight before administration. […] The animals were weighed on the day of administration, and the dosage was determined according to their body weight. The above-mentioned grouped beagle dogs were administered according to the method in Table 5 below. [table] 1 mL of whole blood was collected from the cephalic vein at blood collection time points of 0.0830, 0.250, 0.500, 1.00, 2.00, 4.00, 8.00, 24.00 h after administration. […] The analytical method was performed by liquid chromatography tandem triple quadrupole mass spectrometry (LC MS/MS). […] The peak concentration (Cmax) and the peak time (Tmax) were obtained from the plasma concentration-time curve graph. The log-linear trapezoidal method (see: Gabrielsson J, Weiner D. Pharmacokinetic and pharmacodynamic data analysis: concepts and applications[M]. CRC Press, 2001, pages 141-146) was used to calculate the following parameters: elimination phase half-life (T1/2), mean retention time extrapolated from zero time point to infinity (MRT0-inf), mean retention time from zero time point to the last detectable concentration time point (MRT0-last), the area under the plasma concentration-time curve from the zero time point to the last detectable concentration time point (AUC0-last), and the area under the plasma concentration-time curve extrapolated from the zero time point to infinity (AUC0-inf). The experimental data was expressed as the mean (Mean)±standard deviation (S.D.). The excel software t-test was used for statistical comparison.

[4] = Day 10 at high humidity (R.H. 92.5%)
[5] = Day 10 at high temperature (60° C.)
[6] = beagle dogs, PO 5 mg/kg, capsule, n = 6
[7] = beagle dogs, PO 5 mg/kg, capsule, x ± s, n = 6

Compound	Crystal form after ball milling ([1]; 30 min)	Crystal form after ball milling ([1]; 4 h)	Crystal form after ball milling ([1]; 6 h)	change of crystal form under ball milling pressure [1]	Content (%) ([2]; Day 0)	Crystal form ([2]; Day 0)	Content (%) [2, 4] [%]	Crystal form [2, 4]	Content (%) [2, 5] [%]	Crystal form [2, 5]	Content (%) ([2]; Day 10 at light (4500±500 lx))	Crystal form ([2]; Day 10 at light (4500±500 lx))	content (all conditions) [2] [%]	morphology of crystal form [2]	further results
CN1CCc2ccc(OCCCN3CCC(c4noc5cc(F)ccc45)CC3)cc2C1=O [Crystal Form B, 7-(3-(4-(6-fluorobenzo[d]isoazol-3-yl)piperidin-1-yl)propoxy)-2-methyl-3,4-dihydroisoquinolin-1(2H)-one]	Crystal Form B	Crystal Form B +	Crystal Form B +	its crystal form changed significantly	96.70	Crystal Form B	96.67	Crystal Form B +	96.65	Crystal Form B +	96.69	Crystal Form B +	≥ 96.0	could not remain stable	T1/2 [3, 6]: 2.1 h; Tmax [3, 6]: 1.7 h; AUC0-inf [3, 7]: 2186 ± 82.1 ng·h/mL; AUC0-last [3, 7]: 2039 ± 81.9 ng·h/mL; Cmax [3, 7]: 426 ± 32.75 ng/mL
CN1CCc2ccc(OCCCN3CCC(c4noc5cc(F)ccc45)CC3)cc2C1=O [Crystal Form A, 7-(3-(4-(6-fluorobenzo[d]isoazol-3-yl)piperidin-1-yl)propoxy)-2-methyl-3,4-dihydroisoquinolin-1(2H)-one]	Crystal Form A	Crystal Form A	Crystal Form A	its crystal form did not change	97.21	Crystal Form A	97.18	Crystal Form A	97.15	Crystal Form A	97.13	Crystal Form A	≥ 97.0	stable	half-life ([3]; both sexes, beagle, dog, plasma, po, 5 mg/kg, beagle dogs, PO 5 mg/kg, capsule, n = 6): 2.9 h; Tmax ([3]; both sexes, beagle, dog, plasma, po, 5 mg/kg, beagle dogs, PO 5 mg/kg, capsule, n = 6, read-out: Tmax): 2.6 h; AUC(0-t) ([3]; both sexes, beagle, dog, plasma, po, 5 mg/kg, beagle dogs, PO 5 mg/kg, capsule, x ± s, n = 6): 2840 ± 77.8 ng·h/mL; AUC0-inf ([3]; both sexes, beagle, dog, plasma, po, 5 mg/kg, beagle dogs, PO 5 mg/kg, capsule, x ± s, n = 6, read-out: AUC0-inf): 2990 ± 82 ng·h/mL; Cmax ([3]; both sexes, beagle, dog, plasma, po, 5 mg/kg, beagle dogs, PO 5 mg/kg, capsule, x ± s, n = 6, read-out: Cmax): 645 ± 37.2 ng/mL; bioavailability ([3]; both sexes, beagle, dog, plasma, po, 5 mg/kg, read-out: relative bioavailability (F)): 137%
